Experimental data published in US6737383B1, “Herbicidal oxadiazolidines” (priority 1999, dated 2004).

Key:
Conditions in all cases: Preemergence
blackgrass = assay: Test B pre/postemergence blackgrass; assay type: in vivo, Alopecurus myosuroides
How it was run: (§1)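 Test chemicals in a non-phytotoxic solvent mixture with surfactant were sprayed preemergence onto planted seeds and postemergence onto plants 2 to 18 cm tall (1- to 4-leaf stage). After twelve to sixteen days in a greenhouse, injury was visually rated against untreated controls from 0 (no effect) to 10 (complete control).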

corn = assay: Test B pre/postemergence corn; assay type: in vivo, Zea mays
How it was run: as §1

pigweed = assay: Test B pre/postemergence pigweed; assay type: in vivo, Amaranthus retroflexus
How it was run: as §1

velvetleaf = assay: Test B pre/postemergence velvetleaf; assay type: in vivo, Abutilon theophrasti
How it was run: as §1

bedstraw = assay: Test B pre/postemergence bedstraw; assay type: in vivo, Galium aparine
How it was run: as §1

crabgrass = assay: Test B pre/postemergence crabgrass; assay type: in vivo, Digitaria sanguinalis
How it was run: as §1

wild oat = assay: Test B pre/postemergence wild oat; assay type: in vivo, Avena fatua
How it was run: as §1

giant foxtail = assay: Test B pre/postemergence giant foxtail; assay type: in vivo, Setaria faberii
How it was run: as §1

wheat = assay: Test B pre/postemergence wheat; assay type: in vivo, Triticum aestivum
How it was run: as §1

morningglory = assay: Test B pre/postemergence morningglory; assay type: in vivo, Ipomoea hederacea
How it was run: as §1

rape = assay: Test B pre/postemergence rape; assay type: in vivo, Brassica napus
How it was run: as §1

surinam grass = assay: Test B pre/postemergence surinam grass; assay type: in vivo, Brachiaria decumbens
How it was run: as §1

soybean = assay: Test B pre/postemergence soybean; assay type: in vivo, Glycine max
How it was run: as §1

purple nutsedge = assay: Test B pre/postemergence purple nutsedge; assay type: in vivo, Cyperus rotundus
How it was run: as §1

sugar beet = assay: Test B pre/postemergence sugar beet; assay type: in vivo, Beta vulgaris
How it was run: as §1

cocklebur = assay: Test B pre/postemergence cocklebur; assay type: in vivo, Xanthium strumarium
How it was run: as §1

[1] = Rate 62 g/ha, scale of 0 to 10 where 0 is no effect and 10 is complete control
[2] = Rate 125 g/ha, scale of 0 to 10 where 0 is no effect and 10 is complete control
[3] = Rate 250 g/ha, scale 0 (no effect) to 10 (complete control)
[4] = Rate 500 g/ha, scale 0 to 10 (0 no effect, 10 complete control)

CC(C)N(C(=O)n1oc(=O)n(C(C)C2=NOCC2)c1=O)c1ccc(F)cc1F (racemic) [Compound 730]
Blackgrass plant response rating (blackgrass; [1]): 6 | Plant response rating, Blackgrass (blackgrass; [2]): 9 | Blackgrass plant response rating (blackgrass; [3]): 10 | Blackgrass plant response rating (blackgrass; [4]): 10 | Corn plant response rating (corn; [1]): 0 | Plant response rating, Corn (corn; [2]): 3 | Corn plant response rating (corn; [3]): 4 | Corn plant response rating (corn; [4]): 9 | Redroot pigweed plant response rating (pigweed; [1]): 6 | Plant response rating, Redroot pigweed (pigweed; [2]): 9 | Redroot pigweed plant response rating (pigweed; [3]): 10 | Redroot pigweed plant response rating (pigweed; [4]): 10 | Velvetleaf plant response rating (velvetleaf; [1]): 0 | Plant response rating, Velvetleaf (velvetleaf; [2]): 2 | Velvetleaf plant response rating (velvetleaf; [3]): 6 | Velvetleaf plant response rating (velvetleaf; [4]): 6 | Bedstraw plant response rating (bedstraw; [1]): 0 | Plant response rating, Bedstraw (bedstraw; [2]): 0 | Bedstraw plant response rating (bedstraw; [3]): 0 | Bedstraw plant response rating (bedstraw; [4]): 4 | Crabgrass plant response rating (crabgrass; [1]): 9 | Plant response rating, Crabgrass (crabgrass; [2]): 9 | Crabgrass plant response rating (crabgrass; [3]): 9 | Crabgrass plant response rating (crabgrass; [4]): 10 | Wild oats plant response rating (wild oat; [1]): 0 | Plant response rating, Wild oats (wild oat; [2]): 4 | Wild oats plant response rating (wild oat; [3]): 7 | Wild oats plant response rating (wild oat; [4]): 9 | Giant foxtail plant response rating (giant foxtail; [1]): 10 | Plant response rating, Giant foxtail (giant foxtail; [2]): 10 | Giant foxtail plant response rating (giant foxtail; [3]): 10 | Giant foxtail plant response rating (giant foxtail; [4]): 10 | Wheat plant response rating (wheat; [1]): 0 | Plant response rating, Wheat (wheat; [2]): 0 | Wheat plant response rating (wheat; [3]): 0 | Wheat plant response rating (wheat; [4]): 0 | Morningglory plant response rating (morningglory; [1]): 0 | Plant response rating, Morningglory (morningglory; [2]): 0 | Morningglory plant response rating (morningglory; [3]): 0 | Morningglory plant response rating (morningglory; [4]): 2 | Rape plant response rating (rape; [1]): 0 | Plant response rating, Rape (rape; [2]): 0 | Rape plant response rating (rape; [3]): 2 | Rape plant response rating (rape; [4]): 7 | B. signalgrass plant response rating (surinam grass; [1]): 0 | Plant response rating, B. signalgrass (surinam grass; [2]): 0 | B. signalgrass plant response rating (surinam grass; [3]): 7 | B. signalgrass plant response rating (surinam grass; [4]): 9 | Soybean plant response rating (soybean; [1]): 0 | Plant response rating, Soybean (soybean; [2]): 0 | Soybean plant response rating (soybean; [3]): 2 | Soybean plant response rating (soybean; [4]): 3 | Nutsedge plant response rating (purple nutsedge; [1]): 0 | Plant response rating, Nutsedge (purple nutsedge; [2]): 0 | Nutsedge plant response rating (purple nutsedge; [3]): 3 | Nutsedge plant response rating (purple nutsedge; [4]): 3 | Sugarbeets plant response rating (sugar beet; [1]): 0 | Plant response rating, Sugarbeets (sugar beet; [2]): 2 | Sugarbeets plant response rating (sugar beet; [3]): 4 | Sugarbeets plant response rating (sugar beet; [4]): 7 | Cocklebur plant response rating (cocklebur; [1]): 0 | Plant response rating, Cocklebur (cocklebur; [2]): 0 | Cocklebur plant response rating (cocklebur; [3]): 0 | Cocklebur plant response rating (cocklebur; [4]): 0
